These molecules were tested against T1, LmjPEM1 (Leishmania major, UniProt Q4Q5U4) (assay: radiometric PEMT assay, 3H-SAM incorporation into total lipids, yeast extract). Settings: endogenous yeast PE as substrate; 0.1 M TrisHCl pH 7.5, 30°C, 50 min.
T1 sequence (Q4Q5U4 1-582): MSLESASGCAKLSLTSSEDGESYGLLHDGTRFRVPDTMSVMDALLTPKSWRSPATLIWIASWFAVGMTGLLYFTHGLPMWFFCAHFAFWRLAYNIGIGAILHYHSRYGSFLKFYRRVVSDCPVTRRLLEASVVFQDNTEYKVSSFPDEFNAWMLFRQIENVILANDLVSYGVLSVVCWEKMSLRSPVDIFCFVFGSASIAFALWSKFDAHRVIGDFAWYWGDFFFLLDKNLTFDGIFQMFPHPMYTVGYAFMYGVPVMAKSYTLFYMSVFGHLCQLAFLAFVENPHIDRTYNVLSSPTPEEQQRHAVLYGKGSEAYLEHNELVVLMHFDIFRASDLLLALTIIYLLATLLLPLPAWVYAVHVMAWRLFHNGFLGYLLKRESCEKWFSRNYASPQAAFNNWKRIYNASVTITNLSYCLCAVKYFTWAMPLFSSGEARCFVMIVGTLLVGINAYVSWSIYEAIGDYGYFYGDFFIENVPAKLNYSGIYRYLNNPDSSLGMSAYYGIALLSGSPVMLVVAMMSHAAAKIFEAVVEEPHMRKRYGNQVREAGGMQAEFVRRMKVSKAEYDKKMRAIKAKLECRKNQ
Assay type: biochemical
In the case of CCCCCCCCCCCCCCCCCC[N+](C)(C)C [compound 1, octadecyltrimethylammonium bromide], the “% activity at 10 or 100 μM” value is reported as “followed by miltefosine, octadecyltrimethylammonium bromide, and octadecylphosphocholine”. For CCCCCCCCCCCCCCCCCCOP(=O)([O-])OCC[N+](C)(C)C [compound 6, octadecylphosphocholine], the “% activity at 10 or 100 μM” value was “followed by miltefosine, octadecyltrimethylammonium bromide, and octadecylphosphocholine”. For C[N+](C)(C)CCO [compound 3, choline], the “% activity at 10 or 100 μM” value was “while choline had a very small effect”. CCCCCCCCCCCCCCCC[N+](C)(C)C [compound 2, hexadecyltrimethylammonium bromide] was tested, and the “% activity at 10 or 100 μM” value was “LmjPEM1 activity was best inhibited by hexadecyltrimethylammonium bromide”. With CCCCCCCCCCCCCCCCOP(=O)([O-])OCC[N+](C)(C)C [compound 5, miltefosine] the “% activity at 10 or 100 μM” value was “followed by miltefosine, octadecyltrimethylammonium bromide, and octadecylphosphocholine”.
